This test deals with nude mice, LX-1 lung xenograft intrarenal, tumor weight T/C. In words: NCI In Vivo Anticancer Drug Screen. Data for tumor model Human Lung LX-1 Xenograft (intrarenal inoculation) in NU/NU Swiss (nude) mice. The settings on record: endpoint: mean tumor weight change, higher = larger tumour. The method, boiled down:
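Tumor-bearing mice receive test compound or vehicle; tumor size is then measured in each group. The treated value is divided by the vehicle value to give T/C.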

Setting [1] is: dose: 100.0 mg/kg/injection, schedule: Q01DX010 (sc), vehicle: saline with Tween-80.
Where [2] appears, read: dose: 200.0 mg/kg/injection, schedule: Q01DX010 (sc), vehicle: saline with Tween-80.
Where [3] appears, read: dose: 37.5 mg/kg/injection, schedule: Q04DX003 (sc), vehicle: water.
Where [4] appears, read: dose: 75.0 mg/kg/injection, schedule: Q04DX003 (sc), vehicle: water.
Where [5] appears, read: dose: 50.0 mg/kg/injection, schedule: Q01DX010 (sc), vehicle: Klucel (hydroxypropylcellulose) (HPC).
The mark [6] stands for this setting: dose: 200.0 mg/kg/injection, schedule: Q01DX010 (sc), vehicle: Klucel (hydroxypropylcellulose) (HPC).
The mark [7] stands for this setting: dose: 400.0 mg/kg/injection, schedule: Q01DX010 (sc), vehicle: Klucel (hydroxypropylcellulose) (HPC).
The mark [8] stands for this setting: dose: 300.0 mg/kg/injection, schedule: Q04DX003 (sc), vehicle: Klucel (hydroxypropylcellulose) (HPC).
[9] abbreviates: dose: 600.0 mg/kg/injection, schedule: Q04DX003 (sc), vehicle: Klucel (hydroxypropylcellulose) (HPC).
Setting [10] is: dose: 1200.0 mg/kg/injection, schedule: Q04DX003 (sc), vehicle: Klucel (hydroxypropylcellulose) (HPC).
Setting [11] is: dose: 37.5 mg/kg/injection, schedule: Q04DX003 (sc), vehicle: saline with Tween-80.
The mark [12] stands for this setting: dose: 75.0 mg/kg/injection, schedule: Q04DX003 (sc), vehicle: saline with Tween-80.
Where [13] appears, read: dose: 1200.0 mg/kg/injection, schedule: Q04DX003 (sc), vehicle: saline with Tween-80.
[14] abbreviates: dose: 150.0 mg/kg/injection, schedule: Q04DX003 (sc), vehicle: saline with Tween-80.

Molecules are shown by their SMILES. Values joined by “and” are separate entries in the source; they are usually repeats but may differ in a detail not shown here. Identical values can stand only once. Inconclusive results are not listed.

For the compound `C1OC1CO[C@@H]1CO[C@H]2[C@@H]1OC[C@H]2OCC1CO1` (some centres not stated), the T/C runs as follows: (dose: 50.0 mg/kg/injection, schedule: Q01DX010 (sc), vehicle: saline with Tween-80) 95 % of control; under setting [1], 80 % of control; under setting [2], 65 % of control.

Consider `CNc1n[n+](-c2ccccc2)no1`, for which the T/C runs as follows: under setting [3], 98 % of control; under setting [4], 92 % of control.

On to `Cc1ccc(S(=O)(=O)N/N=C/C(=O)O)cc1`, for which the T/C was 98 % of control (dose: 12.5 mg/kg/injection, schedule: Q01DX010 (sc), vehicle: Klucel (hydroxypropylcellulose) (HPC)); 37 % of control and 55 % of control under setting [5]; 45 % of control under setting [6]; 58 % of control under setting [7].

In the case of `CCC1OCC(C(Cl)CCl)O1` (configuration not stated), the T/C under setting [8] is 115 % of control, the T/C under setting [9] was 88 % of control and the T/C under setting [10] is 26 % of control.

On to `COc1cccc2c1C(=O)c1c(O)c3c(c(O)c1C2=O)C[C@@](O)(/C(C)=N/NC(=O)c1ccccc1)C[C@@H]3OC1CC(N)C(O)C(C)O1` (some centres not stated), for which the T/C (dose: 2.5 mg/kg/injection, schedule: Q04DX003 (sc), vehicle: water) is 113 % of control; the T/C (dose: 10.0 mg/kg/injection, schedule: Q04DX003 (sc), vehicle: water) was 68 % of control and 71 % of control and 93 % of control; the T/C (dose: 18.75 mg/kg/injection, schedule: Q04DX003 (sc), vehicle: water) is 57 % of control; the T/C (dose: 20.0 mg/kg/injection, schedule: Q04DX003 (sc), vehicle: water) was 69 % of control and 79 % of control and 87 % of control; the T/C under setting [3] was 36 % of control; the T/C (dose: 40.0 mg/kg/injection, schedule: Q04DX003 (sc), vehicle: water) was 71 % of control. Further, the T/C is 18 % of control under setting [4] and 79 % of control (dose: 80.0 mg/kg/injection, schedule: Q04DX003 (sc), vehicle: water).

Consider `CC(C)CC(NC(=O)CF)C(=O)O` (configuration not stated), for which the T/C (dose: 5.0 mg/kg/injection, schedule: Q04DX003 (sc), vehicle: saline) was 104 % of control; the T/C (dose: 10.0 mg/kg/injection, schedule: Q04DX003 (sc), vehicle: saline) was 111 % of control; the T/C (dose: 20.0 mg/kg/injection, schedule: Q04DX003 (sc), vehicle: saline) is 70 % of control.

With `CC[N+](CC)(CC)CC`, the T/C reads like this: (dose: 1.5 mg/kg/injection, schedule: Q01DX010 (sc), vehicle: saline with Tween-80) 88 % of control; (dose: 12.0 mg/kg/injection, schedule: Q01DX010 (sc), vehicle: saline with Tween-80) 25 % of control and 49 % of control.

Turning to `Cc1nnc2ncccn12`, the T/C was 112 % of control (dose: 100.0 mg/kg/injection, schedule: Q04DX003 (sc), vehicle: saline) and 107 % of control (dose: 200.0 mg/kg/injection, schedule: Q04DX003 (sc), vehicle: saline).

Regarding `O=NN(CCCl)C(=O)NC1CCC(=O)NC1=O` (configuration not stated), the T/C (dose: 1.56 mg/kg/injection, schedule: Q01DX010 (ip), vehicle: saline with Tween-80) is 29 % of control; the T/C (dose: 3.13 mg/kg/injection, schedule: Q01DX010 (ip), vehicle: saline with Tween-80) was 3 % of control; the T/C (dose: 3.13 mg/kg/injection, schedule: Q01DX010 (sc), vehicle: saline with Tween-80) is 10 % of control; the T/C (dose: 5.2 mg/kg/injection, schedule: Q04DX003 (ip), vehicle: saline with Tween-80) is 5 % of control; the T/C (dose: 6.25 mg/kg/injection, schedule: Q01DX010 (ip), vehicle: saline with Tween-80) is -74 % of control; the T/C (dose: 10.4 mg/kg/injection, schedule: Q04DX003 (ip), vehicle: saline with Tween-80) was -94 % of control.

As to `Cc1cc2c(C(C)C)c(O)c(O)c(C=O)c2c(O)c1-c1c(C)cc2c(C(C)C)c(O)c(O)c(C=O)c2c1O`, the T/C was 85 % of control under setting [11] and 75 % of control under setting [12].

For the compound `CC[C@@]1(O)C[C@H](OC2CC(N(C)C)C(OC3CC(O)C(OC4CCC(=O)C(C)O4)C(C)O3)C(C)O2)c2c(cc3c(c2O)C(=O)c2c(O)ccc(O)c2C3=O)[C@H]1C(=O)OC` (some centres not stated), the T/C runs as follows: (dose: 3.0 mg/kg/injection, schedule: Q04DX003 (sc), vehicle: water) 51 % of control; (dose: 6.0 mg/kg/injection, schedule: Q04DX003 (sc), vehicle: water) 79 % of control.

As for `CCCCOC(=O)/C=C(\Br)C(=O)OCCCC`, the T/C is, setting by setting: under setting [1], 166 % of control; under setting [2], 281 % of control; (dose: 400.0 mg/kg/injection, schedule: Q01DX010 (sc), vehicle: saline with Tween-80) 251 % of control.

As to `CCCCc1ccc2nc(NC(=O)OC)[nH]c2c1`, the T/C was 53 % of control and 78 % of control under setting [1]; 84 % of control (dose: 1600.0 mg/kg/injection, schedule: Q01DX010 (sc), vehicle: saline with Tween-80).

For `COC(=O)Nc1nc2ccc(C3(c4ccc(F)cc4)OCCO3)cc2[nH]1`, the T/C was 76 % of control (dose: 25.0 mg/kg/injection, schedule: Q04DX003 (sc), vehicle: saline with Tween-80); 71 % of control (dose: 50.0 mg/kg/injection, schedule: Q04DX003 (sc), vehicle: saline with Tween-80); 89 % of control (dose: 100.0 mg/kg/injection, schedule: Q04DX003 (sc), vehicle: saline with Tween-80); 79 % of control (dose: 200.0 mg/kg/injection, schedule: Q04DX003 (sc), vehicle: saline with Tween-80); 17 % of control and 37 % of control under setting [13].

`C[C@]12CC[C@H](O)CC1=CC[C@@H]1[C@@H]2CC[C@]2(C)C(=O)CC[C@@H]12`: the T/C under setting [14] was 116 % of control; the T/C (dose: 300.0 mg/kg/injection, schedule: Q04DX003 (sc), vehicle: saline with Tween-80) is 115 % of control; the T/C under setting [13] was 107 % of control.

Consider `CNC(=O)n1c(N)nc(-c2ccccc2)c1-c1ccccc1`, for which the T/C under setting [11] was 114 % of control, the T/C under setting [12] is 122 % of control and the T/C under setting [14] was 57 % of control.

In the case of `NC(=S)c1cn(C2OC(CO)C(O)C2O)c2ncnc(N)c12` (configuration not stated), the T/C is 58 % of control (dose: 6.25 mg/kg/injection, schedule: Q04DX003 (sc), vehicle: suspension in saline) and 43 % of control (dose: 12.5 mg/kg/injection, schedule: Q04DX003 (sc), vehicle: suspension in saline).

Regarding `O=C([CH-]C(=O)C(F)(F)F)c1ccccc1.O=C([CH-]C(=O)C(F)(F)F)c1ccccc1.O=C([CH-]C(=O)C(F)(F)F)c1ccccc1.O=C([CH-]C(=O)C(F)(F)F)c1ccccc1.[Eu+3].c1ccncc1`, the T/C under setting [5] was 85 % of control; the T/C under setting [6] is 49 % of control; the T/C under setting [7] is 40 % of control; the T/C (dose: 800.0 mg/kg/injection, schedule: Q01DX010 (sc), vehicle: Klucel (hydroxypropylcellulose) (HPC)) is 65 % of control.

On to `O=C(O)CSc1c(Cl)c(=O)oc2ccc(Cl)cc12`, for which the T/C (dose: 150.0 mg/kg/injection, schedule: Q04DX003 (sc), vehicle: Klucel (hydroxypropylcellulose) (HPC)) is 52 % of control; the T/C under setting [8] is 70 % of control; the T/C under setting [9] is 82 % of control; the T/C under setting [10] was 165 % of control.

Turning to `COc1cc(Cc2nccc3cc(OC)c(OC)cc23)c(C(C)=O)cc1OC`, the T/C by setting is: (dose: 150.0 mg/kg/injection, schedule: Q04DX003 (sc), vehicle: saline) 87 % of control; (dose: 300.0 mg/kg/injection, schedule: Q04DX003 (sc), vehicle: saline) 88 % of control; (dose: 600.0 mg/kg/injection, schedule: Q04DX003 (sc), vehicle: saline) 99 % of control; (dose: 1200.0 mg/kg/injection, schedule: Q04DX003 (sc), vehicle: saline) 87 % of control.

With `O=C1c2ccccc2C(=O)c2c(NCCNCCO)ccc(NCCNCCO)c21`, the T/C is, setting by setting: (dose: 4.0 mg/kg/injection, schedule: Q01DX010 (sc), vehicle: water) 54 % of control; (dose: 16.0 mg/kg/injection, schedule: Q01DX010 (sc), vehicle: water) 65 % of control.

With `COc1ccc2c(NCCCCCCNc3c4ccccc4nc4cc(OC)ccc34)c3ccccc3nc2c1`, the T/C (dose: 1.25 mg/kg/injection, schedule: Q01DX010 (sc), vehicle: lactic acid) is 105 % of control; the T/C (dose: 2.5 mg/kg/injection, schedule: Q01DX010 (sc), vehicle: lactic acid) was 100 % of control; the T/C (dose: 10.0 mg/kg/injection, schedule: Q01DX010 (sc), vehicle: lactic acid) was 48 % of control.

For the origin of these results see PubChem BioAssay AID264 (DTP/NCI, 2004).
